In US20180000725A1, “ORALLY-DISSOLVING FILMS FOR DRUG DELIVERY THROUGH THE ORAL CAVITY” (The Chinese University of Hong Kong, priority 2016, published 2018):
Read-outs that look alike come from different tables or passages of the source.

Key:
in vivo = conditions: New Zealand Albino, rabbit, po, 1.5 mg/kg
Procedure: (§1) New Zealand Albino rabbits (3.0-4.5 kg) were used in this study. The rabbits were kept at a 12/12 hour light/dark cycle with unlimited food and water supply. […] The rabbits were lightly anesthetized by an intramuscular injection of ketamine and xylazine immediately before dosing. In order to compensate for reduced saliva secretion due to anesthesia, the mouths of the rabbits were wetted with a small amount of distilled water (about 1 mL) before sublingual or buccal administration of the orally dissolving films.
(§2) Blood samples were collected periodically at pre-determined time points for 6 hours.
(§3) The pharmacokinetic studies were conducted by three different routes (i.e. oral, sublingual, and buccal administration), and the data were analyzed non-compartmentally by using WinNonlin (Certara USA, Inc., Princeton, N.J., USA).

[1] = In vivo pharmacokinetic study of ropinirole / ROP-ODF; conditions: New Zealand Albino, rabbit, po, 1.5 mg/kg
Procedure: as §1, §2, §3

[2] = ropinirole, cited from earlier work
[3] = cited from earlier work

**Q.** For `CCCN(CCC)CCc1cccc2c1CC(=O)N2` [ropinirole, Ropinirole], which AUC(0-inf) (in vivo) is on record?
**A.** Its AUC(0-inf) is 90.5 ng·h/mL.

**Q.** What about the AUC(0-t) (in vivo) of the same compound?
**A.** The AUC(0-t) was 65.5 ng·h/mL.

**Q.** What about the Cmax (in vivo) of the same compound?
**A.** The Cmax was 29.9 ± 16.2 ng/mL.

**Q.** And the half-life (in vivo)?
**A.** The half-life was 2.893 ± 0.0183 h.

**Q.** And the Tmax [1]?
**A.** Its Tmax is 2.38 h.

**Q.** And the Tmax ([2]; after oral administration)?
**A.** The Tmax was roughly 1.5 h.

**Q.** What about the “oral dose excreted unchanged” value ([2]; oral) of the same compound?
**A.** Its value is 10%.

**Q.** What about the “protein binding in the plasma” value [3] of the same compound?
**A.** Its value is 10-39%.
